Reference: ChEMBL document CHEMBL6103628, “Structural Optimization of Covalent Inhibitors for Deubiquitinase ChlaDUB1 of Chlamydia trachomatis as Antibiotic Agents” (J Med Chem, 2025)
≈ marks a conversion by molar mass, not a printed value. Calls of active or inactive are those of the source. The rule behind the calls is not given here.

Assays:
[1] = molecular target: T1, Deubiquitinase and deneddylase Dub1 (Chlamydia trachomatis serovar L2 (strain ATCC VR-902B / DSM 19102 /434/Bu), UniProt B0B9A0); experiment: Inhibition of recombinant Chlamydia trachomatis DUB1 (130 to 401 residues) using Ub-Rh110Gly as fluorogenic substrate incubated for 60 mins by enzymatic analysis
T1 sequence (B0B9A0 whole entry): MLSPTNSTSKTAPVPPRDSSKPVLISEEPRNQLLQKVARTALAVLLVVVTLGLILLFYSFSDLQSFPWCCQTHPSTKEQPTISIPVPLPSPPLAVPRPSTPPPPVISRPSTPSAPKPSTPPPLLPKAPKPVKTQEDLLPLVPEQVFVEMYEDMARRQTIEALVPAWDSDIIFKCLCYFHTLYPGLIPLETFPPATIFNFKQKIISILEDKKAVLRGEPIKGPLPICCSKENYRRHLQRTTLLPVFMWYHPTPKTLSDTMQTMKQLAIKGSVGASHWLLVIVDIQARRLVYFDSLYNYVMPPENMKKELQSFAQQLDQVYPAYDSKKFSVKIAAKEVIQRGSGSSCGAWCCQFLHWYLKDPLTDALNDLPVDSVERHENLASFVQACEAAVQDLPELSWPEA

[2] = test system: HEp-2; experiment: Cytotoxicity against human HEp-2 cells assessed as reduction in cell viability at 4 to 256 ug/mL measured after 20 hrs by XTT assay; format: toxicity, cell-based; settings: hep-2, 20 h, dose 4-256 µg/ml
[3] = molecular target: T2, Deubiquitinase and deneddylase Dub1 (Chlamydia trachomatis serovar L2 (strain ATCC VR-902B / DSM 19102 /434/Bu)) (UniProt B0B9A0); experiment: Inhibition of recombinant Chlamydia trachomatis DUB1 (130 to 401 residues) using Ub-Rh110Gly as fluorogenic substrate incubated for 60 mins by enzymatic analysis relative to control
T2 sequence (whole entry): T1 sequence (B0B9A0 whole entry)

[4] = test system: HeLa; experiment: Cytotoxicity against human HeLa cells assessed as cell viability at 4 to 256 ug/mL measured after 20 hrs by XTT assay; format: toxicity, cell-based; settings: dose 4-256 µg/ml
[5] = molecular target: T2, Deubiquitinase and deneddylase Dub1 (Chlamydia trachomatis serovar L2 (strain ATCC VR-902B / DSM 19102 /434/Bu)); experiment: Binding affinity to recombinant Chlamydia trachomatis DUB1 (130 to 401 residues) assessed as inactivation rate constant (Kinact) using Ub-Rh110Gly as fluorogenic substrate incubated for 360 mins by Michaelis-Menten analysis
[6] = molecular target: T1, Deubiquitinase and deneddylase Dub1; experiment: Inhibition of recombinant Chlamydia trachomatis DUB1 (130 to 401 residues) using Ub-Rh110Gly as fluorogenic substrate incubated for 360 mins by enzymatic analysis
[7] = molecular target: T2, Deubiquitinase and deneddylase Dub1 (Chlamydia trachomatis serovar L2 (strain ATCC VR-902B / DSM 19102 /434/Bu)); experiment: Binding affinity to recombinant Chlamydia trachomatis DUB1 (130 to 401 residues) assessed as Kinact/Ki ratio using Ub-Rh110Gly as fluorogenic substrate incubated for 360 mins by Michaelis-Menten analysis
[8] = molecular target: T1, Deubiquitinase and deneddylase Dub1; experiment: Binding affinity to recombinant Chlamydia trachomatis DUB1 (130 to 401 residues) assessed as inhibition constant using Ub-Rh110Gly as fluorogenic substrate incubated for 360 mins by Michaelis-Menten analysis
[9] = molecular target: T2, Deubiquitinase and deneddylase Dub1 (Chlamydia trachomatis serovar L2 (strain ATCC VR-902B / DSM 19102 /434/Bu)); experiment: Inhibition of recombinant Chlamydia trachomatis DUB1 (130 to 401 residues) using Ub-Rh110Gly as fluorogenic substrate at highest concentration incubated for 60 to 360 mins by enzymatic analysis; settings: time 60-360 min
[10] = molecular target: T2, Deubiquitinase and deneddylase Dub1 (Chlamydia trachomatis serovar L2 (strain ATCC VR-902B / DSM 19102 /434/Bu)); experiment: Non-covalent inhibition of recombinant Chlamydia trachomatis DUB1 (130 to 401 residues) using Ub-Rh110Gly as fluorogenic substrate incubated for 10 to 360 mins by enzymatic analysis; settings: time 10-360 min
[11] = molecular target: T2, Deubiquitinase and deneddylase Dub1 (Chlamydia trachomatis serovar L2 (strain ATCC VR-902B / DSM 19102 /434/Bu)); experiment: Covalent inhibition of recombinant Chlamydia trachomatis DUB1 (130 to 401 residues) using Ub-Rh110Gly as fluorogenic substrate incubated for 10 to 360 mins by enzymatic analysis; settings: time 10-360 min
[12] = molecular target: T2, Deubiquitinase and deneddylase Dub1 (Chlamydia trachomatis serovar L2 (strain ATCC VR-902B / DSM 19102 /434/Bu)); experiment: Inhibition of recombinant Chlamydia trachomatis DUB1 (130 to 401 residues) using Ub-Rh110Gly as fluorogenic substrate at 100 to 500 uM incubated for 20 to 240 mins by enzymatic analysis relative to control; settings: dose 100-500 µM, time 20-240 min
[13] = test system: Chlamydia trachomatis; experiment: Anti-chlamydial activity against Chlamydia trachomatis serovar L2 infected in human HEp-2 cells assessed as inhibition of chlamydial inclusion incubated for 16 hrs by Alexa488/DAPI staining based immunofluorescence assay; format: functional, organism-based; settings: serovar L2, HEp-2, 16 h
[14] = molecular target: T1, Deubiquitinase and deneddylase Dub1; experiment: Inhibition of recombinant Chlamydia trachomatis DUB1 (130 to 401 residues) using Ub-Rh110Gly as fluorogenic substrate incubated for 20 mins by enzymatic analysis
[15] = molecular target: T1, Deubiquitinase and deneddylase Dub1; experiment: Inhibition of recombinant Chlamydia trachomatis DUB1 (130 to 401 residues) using Ub-Rh110Gly as fluorogenic substrate incubated for 2 mins by enzymatic analysis

Structure (SMILES) | IC50 ([1]; read-out: IC50) [µM] | further results
N#Cc1ncc(NC(=O)Cc2c[nH]c3ccccc23)cn1 | 93 | –
N#Cc1nccc(C(=O)NCc2c[nH]c3ccc(OCc4ccccc4)cc23)n1 | 2.9 | Activity [2]: Toxic; inhibition [3]: 100%; Activity [4]: Non-toxic
Cn1ccc(NC(=O)c2ccnc(C#N)n2)n1 | 47 | IC50 ([1]; read-out: pIC50 (converted)): 45.7 µM
N#Cc1nccc(C(=O)NCc2c[nH]c3cc(OCc4ccccc4)ccc23)n1 | 15 | –
N#Cc1nccc(C(=O)NCc2c[nH]c3ccccc23)n1 | 6.1 | Kinact [5]: 0.422 min⁻¹; IC50 [6]: 1.7 µM; Ratio [7]: 22.4 M⁻¹ s⁻¹; Ki [8]: 314 µM
N#Cc1ncc(C(=O)N2CCc3cc(C(=O)NCc4ccccc4)ccc3C2)cn1 | 77 | –
N#Cc1ncc(C(=O)NCc2ccc(C(=O)NCc3ccccc3)c3ccccc23)cn1 | 10 | inhibition [9]: Active; Complete Inhibition Was Not Achieved; inhibition [10]: Active
N#Cc1nccc(NC(=O)Cc2c[nH]c3ccccc23)n1 | 175 | –
COc1ccc2[nH]cc(CNC(=O)c3ccnc(C#N)n3)c2c1 | 5.7 | –
N#Cc1nccc(C(=O)NCc2n[nH]c3ccccc23)n1 | 19 | inhibition [3]: 100%
COc1ccc2c(CNC(=O)c3ccnc(C#N)n3)c[nH]c2c1 | 7.5 | –
N#Cc1nccc(C(=O)NCc2c[nH]c3c(OCc4ccccc4)cccc23)n1 | 182 | –
N#Cc1ncc(C(=O)NCc2cccc(C(=O)NCc3ccccc3)c2)cn1 | 22 | –
N#Cc1nccc(C(=O)Nc2cc[nH]n2)n1 | 23 | –
N#Cc1nccc(C(=O)NCc2c[nH]c3cccc(OCc4ccccc4)c23)n1 | 184 | –
N#Cc1ncc(C(=O)NCc2ccc(C(=O)NCc3ccccc3)cc2)cn1 | 27 | inhibition [11]: Active
N#Cc1nccc(C(=O)NCc2ccn(C(=O)Cc3ccccc3)n2)n1 | 23 | inhibition [11]: Active; inhibition [12]: 100%
N#Cc1nccc(C(=O)NCCc2c[nH]c3ccccc23)n1 | 23 | –
COc1ccccc1CNC(=O)[C@H]1CC[C@H](CNC(=O)c2cnc(C#N)nc2)CC1 | 122 | –
N#Cc1nc(C(=O)NCc2c[nH]c3ccccc23)co1 | – | Activity [2]: Toxic; IC50 [13]: 32.2 µg/mL (≈ 121 µM); IC50 [14]: 3.1 µM; Ki [8]: 117 µM; Activity [4]: Toxic; IC50 [15]: 16 µM
N#Cc1nccc(C(=O)Nc2n[nH]c3ccccc23)n1 | 23 | inhibition [3]: 100%
Cn1cc(CNC(=O)c2ccnc(C#N)n2)c2ccccc21 | 15 | –
